This is an account of results in ChEMBL document CHEMBL1201862, “PubChem BioAssay data set” (2004).

Among the test systems are COLO 205; OVCAR-4; M14; NCI-H23; HOP-62; HT-29; Malme-3M; SNB-19; EKVX; SK-MEL-28; SN12C; RXF 393; OVCAR-8; SF-268; MDA-MB-231; CAKI-1; SNB-75; UACC-257; MCF7; SK-OV-3.
Holding throughout (assay): inhibition of tumour cell growth, NCI panel, 48 h

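In this assay, cells in 96-well plates receive the compound at five concentrations for 48 hours. Endpoints are linearly interpolated between the surrounding concentrations. The concentration for 50% growth inhibition is given as GI50.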 Activity calls are given as the source filed them. Rule as the data show it: active = GI50 up to about 1.1 µM and inactive = higher. A value given as a limit tells only on which side of the number the result lay.

In the case of `COc1ccc(C2NC(=S)Nc3c2c(=O)oc2c3ccc3ccccc32)cc1` (stereo not given), the GI50 in the assay with COLO 205 is > 100 µM (inactive); with OVCAR-4 it was 69.2 µM (inactive); in the assay with M14, 45.6 µM (inactive); with NCI-H23, 67.3 µM (inactive); in the assay with HOP-62 it was 87.9 µM (inactive); with HT-29, > 100 µM (inactive). In addition, the GI50 in the assay on Malme-3M is > 100 µM (inactive); in the assay with SNB-19, 35.7 µM (inactive); in the assay on EKVX, 27.4 µM (inactive); in the assay with SK-MEL-28, 52.5 µM (inactive); in the assay with SN12C it was 88.5 µM (inactive); in the assay with RXF 393 it was > 100 µM (inactive). The GI50 with OVCAR-8 is 92.3 µM (inactive); in the assay with SF-268, > 100 µM (inactive); in the assay on MDA-MB-231 it was 57.8 µM (inactive); with CAKI-1 it was 58.3 µM (inactive); with SNB-75 it was 33.7 µM (inactive); in the assay with UACC-257, > 100 µM (inactive). In addition, the GI50 in the assay on MCF7 and with SK-OV-3 was > 100 µM (inactive) each time.
`COc1ccc2cc(CNCCCN3CCN(CCCNCc4ccc5cc(OC)ccc5c4)CC3)ccc2c1`: the GI50 in the assay with COLO 205 was 1.4 µM (inactive); in the assay with OVCAR-4, 1.96 µM (inactive); in the assay with M14, 1.6 µM (inactive); in the assay with NCI-H23 it was 1.91 µM (inactive); in the assay on HOP-62, 1.65 µM (inactive); with HT-29, 0.49 µM (active). Also, the GI50 in the assay with Malme-3M is 1.72 µM (inactive); with SNB-19, 1.76 µM (inactive); with EKVX, 1.73 µM (inactive); with SK-MEL-28, 1.71 µM (inactive); in the assay on SN12C, 1.69 µM (inactive); with RXF 393, 1.46 µM (inactive). The GI50 was 1.73 µM (inactive) in the assay with OVCAR-8; 1.77 µM (inactive) with SF-268; 1.9 µM (inactive) with MDA-MB-231; 1.78 µM (inactive) in the assay with CAKI-1; 1.62 µM (inactive) in the assay on SNB-75; 2.22 µM (inactive) in the assay on UACC-257. For the same compound, the values for the GI50 in the assay on MCF7 and with SK-OV-3 were 1.35 µM (inactive) and 1.42 µM (inactive), respectively.
As to `COC(=O)[C@@H]1[C@@H](c2cccc(Cl)c2)[C@H](C(=O)OC)C2(C[C@@]1(C)O)NCCS2` (stereo not given in full), the GI50 was 81.1 µM (inactive) in the assay with COLO 205; 46.7 µM (inactive) with OVCAR-4; 39.1 µM (inactive) in the assay with M14; 22.3 µM (inactive) in the assay with NCI-H23; 92.3 µM (inactive) in the assay with HOP-62; 44.2 µM (inactive) in the assay with HT-29. Also, the GI50 in the assay on Malme-3M was > 100 µM (inactive); with SNB-19, 83.9 µM (inactive); in the assay with EKVX, > 100 µM (inactive); in the assay on SK-MEL-28 it was 77.4 µM (inactive); in the assay on SN12C it was 47.9 µM (inactive); with RXF 393 it was 49.4 µM (inactive). In addition, the GI50 was 86.5 µM (inactive) in the assay on OVCAR-8; > 100 µM (inactive) in the assay on SF-268; 64.7 µM (inactive) in the assay on MDA-MB-231; > 100 µM (inactive) in the assay with CAKI-1; 35.5 µM (inactive) in the assay with SNB-75; 87.7 µM (inactive) in the assay on UACC-257. Moreover, the GI50 in the assay on MCF7 was 56.1 µM (inactive); with SK-OV-3, > 100 µM (inactive).
Consider `CC(C)(C)OC(=O)NC(CS(=O)(=O)O)C(=O)O` (stereo not given), for which the GI50 in the assay on COLO 205, in the assay on OVCAR-4, with M14, with NCI-H23, with HOP-62 and with HT-29 was > 100 µM (inactive) in each case. The GI50 with Malme-3M, in the assay on SNB-19, with EKVX, in the assay on SK-MEL-28, in the assay with SN12C and in the assay with RXF 393 was > 100 µM (inactive) in each case. Moreover, the GI50 with OVCAR-8, in the assay on SF-268, in the assay on MDA-MB-231, in the assay on CAKI-1, with SNB-75 and in the assay with UACC-257 was > 100 µM (inactive) each time. Moreover, the GI50 in the assay on MCF7 and in the assay with SK-OV-3 was > 100 µM (inactive) each time.
